Tested on: SUM149PT
Experiment: Cytotoxicity against human triple negative SUM149PT cells assessed as cell viability measured by MTS assay
Format: functional, cell-based

Compound | IC50 [nM]
CCCCc1nc(-c2ccc(OCCCN(CC)CC)cc2)nn1-c1ccc(-c2ccc(C(=O)OCC)cc2)cc1 | 328
CCCCc1nc(-c2ccc(OCCCN(CC)CC)cc2)nn1-c1ccc(-c2ccc(Cl)cc2)cc1 | 220
CCCCc1nc(-c2ccc(OCCCN(CC)CC)cc2)nn1-c1ccc(-c2ccc(OC(F)(F)F)cc2)cc1 | 664
CCCCc1nc(-c2ccc(OCCCN(CC)CC)cc2)nn1-c1ccc(-c2ccc(C)cc2)cc1 | 267
CCCCc1nc(-c2ccc(OCCCN(CC)CC)cc2)nn1-c1ccc(-c2ccc(C#N)cc2)cc1 | 5430
CCCCc1nc(-c2ccc(OCCCN(CC)CC)cc2)nn1-c1ccc(Oc2ccc(Cl)cc2)cc1 | 6300
CCCCOc1ccc(-c2nc(CCCC)n(-c3ccc(Oc4ccc(Cl)cc4)cc3)n2)cc1 | 16000
CCCCc1nc(-c2ccc(OCCCN(CC)CC)cc2)nn1-c1ccc(Oc2ccccc2)cc1 | 538
CCCCc1nc(-c2ccc(OCCOCC)cc2)nn1-c1ccc(Oc2ccc(Cl)cc2)cc1 | 18600
CCCCc1nc(-c2ccc(OCCCN(CC)CC)cc2)nn1-c1ccc(-c2ccnn2C)cc1 | 665
CCCCc1nc(-c2ccc(OCCCN(CC)CC)cc2)nn1-c1ccc(-c2ccc(OC)cc2)cc1 | 588
CCN(CC)CCCOc1ccc(-c2nc(CCOC)n(-c3ccc(Oc4ccc(Cl)cc4)cc3)n2)cc1 | 12500
CCCCc1nc(-c2ccc(OCCC)cc2)nn1-c1ccc(Oc2ccccc2)cc1 | 13700
CCCCc1nc(-c2ccc(OCCN3CCCCC3)cc2)nn1-c1ccc(Oc2ccc(Cl)cc2)cc1 | 5680
CCCCc1nc(-c2ccc(OCCCN(CC)CC)cc2)nn1-c1ccc(-c2ccc(OC)cc2OC)cc1 | 487
CCCCc1nc(-c2ccc(OCCCN(CC)CC)cc2)cn1-c1ccc(Oc2ccc(Cl)cc2)cc1 [AZELIRAGON] | 5290
